For assay [1], the target named is T1, InsR (Homo sapiens, UniProt P06213).
T1 construct: 6×His- or GST-tagged kinase domain fragments of the corresponding RTKs expressed in baculovirus system; host or cells: baculovirus system
Briefly: Tyrosine kinase assay (Kinase-Glo or AlphaScreen), InsR. The conditions noted are these: biochemical tyrosine kinase assay. The procedure, abridged: (§1)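 In the AlphaScreen version, kinase domain, biotinylated poly(Glu-Tyr) and 10 μM ATP react 30 minutes at room temperature, then PT66 or PT100 beads are added for a further 60 minutes. Buffer is Tris-HCl pH 7.5 with MgCl2, MnCl2, DTT and Tween 20.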
A general note: Kinase-Glo measures the ATP left after a reaction by luminescence.

For assay [2], the target named is T2, Jak2 (Homo sapiens, UniProt O60674).
T2 construct: 6×His- or GST-tagged kinase domain fragments of the corresponding RTKs expressed in baculovirus system; host or cells: baculovirus system
As to the kind of experiment: Tyrosine kinase assay (Kinase-Glo or AlphaScreen), Jak2. To be noted: biochemical tyrosine kinase assay. The procedure, abridged: as §1

Assay [3] has as its system H929 (multiple myeloma). Briefly: Cell proliferation inhibition, Cell Titer-Glo, H929. To be noted: Homo sapiens, NCI-H929; cell proliferation assay, H929 cells. The class given is cell-based. In short, it runs like this:
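Cells seeded at 2500-5000 per well with serially diluted compound for typically 3 days. Viable cells measured by ATP luminescence (Cell Titer-Glo); IC50 from proliferation-inhibition curves.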
Background: Cellular ATP, detected with luciferase, serves as a proxy for viable cell number.

In assay [4] the test system is Ba/F3. As to the kind of experiment: Cell proliferation inhibition, Cell Titer-Glo, Ba/F3. The class given is cell-based. To be noted: Mus musculus, BaF3; cell proliferation assay, Ba/F3 cells. The procedure, abridged: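 This standard 3-day proliferation assay used Ba/F3 cells plated in 384-well white plates with clear bottoms at 2500-5000 cells per well and treated with compound dilutions. Viable cell number was determined by mixing in Cell Titer-Glo developing reagent according to the manufacturer's protocol and counting luminescence. Percent viability relative to day 0 and untreated wells produced IC50 curves.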

T1 sequence (P06213 1023-1298 limits assumed, species assumed): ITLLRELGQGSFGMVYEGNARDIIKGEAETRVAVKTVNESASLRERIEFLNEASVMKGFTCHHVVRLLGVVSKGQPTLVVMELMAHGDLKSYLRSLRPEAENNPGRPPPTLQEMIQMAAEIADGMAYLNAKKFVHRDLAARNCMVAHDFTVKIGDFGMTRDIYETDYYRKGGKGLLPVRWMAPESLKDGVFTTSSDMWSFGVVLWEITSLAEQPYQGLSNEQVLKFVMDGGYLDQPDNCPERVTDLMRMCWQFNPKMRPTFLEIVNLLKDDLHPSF
T2 sequence (O60674 849-1124 limits assumed, species assumed): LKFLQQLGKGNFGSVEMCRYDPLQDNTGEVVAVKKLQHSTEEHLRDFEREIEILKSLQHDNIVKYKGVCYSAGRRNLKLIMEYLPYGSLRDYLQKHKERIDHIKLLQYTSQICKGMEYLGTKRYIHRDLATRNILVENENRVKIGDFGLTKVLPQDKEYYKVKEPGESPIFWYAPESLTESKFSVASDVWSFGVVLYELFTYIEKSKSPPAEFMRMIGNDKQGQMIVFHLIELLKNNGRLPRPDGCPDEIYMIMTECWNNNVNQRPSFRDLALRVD

As a reminder, the IC50 is the concentration that gives 50% inhibition. The low end stands for inhibition by little substance, the high end for a need for much substance. On to `COc1ccc(OC[C@H](O)CNc2cc[nH]c(=O)c2-c2nc3cc4c(cc3[nH]2)C(=O)N(C2CCN(C)CC2)C4=O)c(OC)c1OC` [compound 93], for which the IC50 in assay [1] was less than 0.5 µM; in assay [2], more than 15 µM; in assay [3], 0.5 to 5 µM; in assay [4], more than 15 µM.
As for `CN1CCC(N2C(=O)c3cc4nc(-c5c(NC[C@@H](O)COc6cccc(-c7ccccc7)c6)cc[nH]c5=O)[nH]c4cc3C2=O)CC1` [compound 89], the IC50 in assay [1] was 0.5 to 5 µM; in assay [2], 0.5 to 5 µM; in assay [3] it was 5 to 15 µM; in assay [4], 5 to 15 µM.
`Cc1ccc2c(ccn2C[C@H](O)CNc2cc[nH]c(=O)c2-c2nc3cc4c(cc3[nH]2)C(=O)N(C2CCN(C)CC2)C4=O)c1` [compound 131]: the IC50 was 0.5 to 5 µM in assay [1], 0.5 to 5 µM in assay [2], 0.5 to 5 µM in assay [3] and more than 15 µM in assay [4].
As for `O=C1c2cc3nc(-c4c(NC[C@@H](O)c5cccc(Cl)c5)cc[nH]c4=O)[nH]c3cc2C(=O)N1[C@H]1CN2CCC1CC2` [compound 34], the half-inhibitory concentration (IC50) is 0.5 to 5 µM in assay [1], 0.5 to 5 µM in assay [2], 5 to 15 µM in assay [3] and more than 15 µM in assay [4].
For the compound `Cc1ccc(OCC(O)CNc2cc[nH]c(=O)c2-c2nc3cc4c(cc3[nH]2)C(=O)N(CC2CCN(CCO)CC2)C4=O)c(C)c1` (stereo not shown) [compound 37], the IC50 is less than 0.5 µM in assay [1], 0.5 to 5 µM in assay [2], 0.5 to 5 µM in assay [3] and more than 15 µM in assay [4].
`CN1CCC(N2C(=O)c3cc4nc(-c5c(NC[C@@H](O)COc6cccc7ccccc67)cc[nH]c5=O)[nH]c4cc3C2=O)CC1` [compound 87]: the IC50 in assay [1] is less than 0.5 µM; in assay [2] it was 0.5 to 5 µM; in assay [3], 5 to 15 µM; in assay [4], more than 15 µM.
For the compound `Cc1ccc(OC[C@H](O)CNc2cc[nH]c(=O)c2-c2nc3cc4c(cc3[nH]2)C(=O)N(C2CCN(C)CC2)C4=O)c(C)c1` [compound 59], the IC50 in assay [1] was less than 0.5 µM; in assay [2], 0.5 to 5 µM; in assay [3] it was 0.5 to 5 µM; in assay [4], 0.5 to 5 µM.

Source of the values: patent publication US8063225B2, “Tricyclic compound derivatives useful in the treatment of neoplastic diseases, inflammatory disorders and immunomodulatory disorders” (Chembridge Corporation, priority 2006, dated 2011).
